Data reported in US20030220329A1, “Method of improving beta-adrenergic receptor function” (DUKE UNIVERSITY, priority 1999, published 2003).
Marks after values point to notes of the source that are not given here.

Legend:
β3AR mRNA = test: Northern blot, β3AR mRNA in EWAT; assay type: in vivo, B6 mice; details: normalized to cyclophilin
[1] = Fasting plasma glucose, insulin and leptin; assay type: in vivo, B6 mice; details: for Fasting plasma glucose: termination of / throughout the study
Protocol: (§1) Animals and Diets. Seventy-five 4-week old B6 male mice were obtained from Jackson Laboratories (Bar Harbor, Me.). The animals were housed 5 per cage in a temperature controlled (22° C.) room with a 12 hour light/dark cycle (lights off at 19:00). The HF and low fat (LF) experimental diets were manufactured by Research Diets (New Brunswick, N.J.), and contain 58% and 11% of calories from fat, respectively. The composition of these diets have been described in detail elsewhere (Surwit et al. Metabolism 44:645-651 (1995)). A group of 60 mice were fed the HF diet for the first four weeks of the study; the remaining 15 mice were fed the LF diet. The mice assigned to the LF diet were maintained on this diet throughout the study as a reference group of lean control mice. At week 4, all HF-fed mice were assigned to 4 groups of 15 mice each. The first group remained on the HF diet throughout the study as the “obese” control group. The remaining 3 groups of mice were fed the HF diet containing either the β3AR agonist CL316,243 (CL), diazoxide (Dz) or the combination of the two compounds (CLDz). The CL concentration in the diets was 1 mg/kg (0.001%). This dose had originally been recommended by Dr. Thomas Claus, of Lederle Laboratories and found to be differentially effective in reducing obesity in obesity-prone B6 and obesity-resistant A/J mice (Collins et al, Obes. Res. 43:83-86 5:6S (1997)). The Dz concentration in the diets was 3.2 g/kg (0.32%) was determined to be the maximally effective dose for weight-reduction in dose-response pilot studies.
Glucose, Insulin, and Leptin. Samples for analysis of insulin, glucose, and leptin were collected as previously reported (Surwit et al. Metabolism 44:645-651 (1995), Collins et al., Endocrinology 138:405-413 (1997)) at day 24 (4 days before the diets were changed), at day 32 (4 days after the change) and biweekly thereafter. In all cases, food was removed 8 hours before samples were collected. Glucose was analyzed by the glucose oxidase method (Beckman Glucose Analyzer II). Insulin and leptin concentrations were determined by double antibody radioimmunoassay (Linco Research, St. Louis. Mo.). The insulin assay was based on a rat standard and the leptin assay used a mouse standard.

[2] = Postprandial plasma triglycerides and non-esterified fatty acids; assay type: in vivo, B6 mice; details: at termination of the study, HF diet + drug for 4 weeks
Protocol: Animals and Diets. Seventy-five 4-week old B6 male mice were obtained from Jackson Laboratories (Bar Harbor, Me.). The animals were housed 5 per cage in a temperature controlled (22° C.) room with a 12 hour light/dark cycle (lights off at 19:00). The HF and low fat (LF) experimental diets were manufactured by Research Diets (New Brunswick, N.J.), and contain 58% and 11% of calories from fat, respectively. The composition of these diets have been described in detail elsewhere (Surwit et al. Metabolism 44:645-651 (1995)). A group of 60 mice were fed the HF diet for the first four weeks of the study; the remaining 15 mice were fed the LF diet. The mice assigned to the LF diet were maintained on this diet throughout the study as a reference group of lean control mice. At week 4, all HF-fed mice were assigned to 4 groups of 15 mice each. The first group remained on the HF diet throughout the study as the “obese” control group. […] The Dz concentration in the diets was 3.2 g/kg (0.32%) was determined to be the maximally effective dose for weight-reduction in dose-response pilot studies.
Triglycerides and Non-Esterified Fatty Acids. At the termination of the study, a postprandial plasma sample was collected and analyzed for triglyceride and non-esterified fatty acid (NEFA) concentrations using kits from WAKO Diagnostics (Richmond. Va.).

β3AR = biological target: T1, β3AR (Mus musculus, UniProt P25962); test: β3AR-stimulated adenylyl cyclase activity in EWAT plasma membranes from treated animals; assay type: biochemical, B6 mice; details: membranes from treated HF-fed animals
T1 construct: from tissue
Protocol: (§2) Tissue Collection. After 4 weeks of drug treatment, a subset of 10 animals from each group was killed. The epididymal white adipose tissue (EWAT), retroperitoneal (RP) fat, interscapular brown adipose tissue (IBAT) fat pads and gastrocnemius muscle were removed, trimmed, washed, and all tissues were flash-frozen in liquid nitrogen and stored at −80° C. for later determination of β3AR, (EWAT) UCP1 expression (IBAT and RP), UCP2 and 3 expression (IBAT) as well as β3AR-stimulated adenylyl cyclase activity (EWAT).
Preparation of plasma membranes and adenylyl cyclase assay. Adipose tissue was isolated from each group of animals. The tissues from 4 mice per group were pooled and minced and then plasma membranes prepared as previously described (Collins et al, Mol. Endocrinol. 8:518-527 (1994)). Adenylyl cyclase activity was measured using established methods, and the cAMP formed was measured by RIA (Harper et al, J. Cyclic Nucleotide Res. 1:207-218 (1975)) using a polyclonal anti-serum to cAMP (Gettys et al, J. Biol. Chem. 266:15949-15955 (1991)). Protein concentrations were determined by the Bradford method (Bradford. Anal. Biochem 72:248-254 (1976)).

[3] = test system: glucose transport into white adipose tissue and muscle; test: Glucose transport into adipose and muscle tissues (14C 2-deoxyglucose accumulation); assay type: in vivo, B6 mice; details: compared to HF control group
Protocol: as §1
Glucose Transport. Basal glucose transport into white adipose tissue and muscle was assessed following the method of Skillman and Fletcher (Skillman et al, Exp. Clin. Endocrinol. 87:288-298 (1986)) with minor modifications. Five mice from each group were injected i.p. with 50 mg/kg 2-deoxyglucose (20 μCi/kg ^14C 2-deoxyglucose) mixed with 2-deoxyglucose (final specific activity was 66 μCi/mmole). Twenty minutes later the mice were killed by cervical dislocation. […] The samples were neutralized with 1 M HCl and the ^14C content determined.

[4] = Fat pad weight and estimate of percent body fat; assay type: in vivo, B6 mice; details: wet weight after 4 weeks of drug treatment
Protocol: Animals and Diets. Seventy-five 4-week old B6 male mice were obtained from Jackson Laboratories (Bar Harbor, Me.). The animals were housed 5 per cage in a temperature controlled (22° C.) room with a 12 hour light/dark cycle (lights off at 19:00). The HF and low fat (LF) experimental diets were manufactured by Research Diets (New Brunswick, N.J.), and contain 58% and 11% of calories from fat, respectively. The composition of these diets have been described in detail elsewhere (Surwit et al. Metabolism 44:645-651 (1995)). A group of 60 mice were fed the HF diet for the first four weeks of the study; the remaining 15 mice were fed the LF diet. The mice assigned to the LF diet were maintained on this diet throughout the study as a reference group of lean control mice. At week 4, all HF-fed mice were assigned to 4 groups of 15 mice each. The first group remained on the HF diet throughout the study as the “obese” control group. […] This dose had originally been recommended by Dr. Thomas Claus, of Lederle Laboratories and found to be differentially effective in reducing obesity in obesity-prone B6 and obesity-resistant A/J mice (Collins et al, Obes. Res. 43:83-86 5:6S (1997)). The Dz concentration in the diets was 3.2 g/kg (0.32%) was determined to be the maximally effective dose for weight-reduction in dose-response pilot studies. Tissue Collection. After 4 weeks of drug treatment, a subset of 10 animals from each group was killed. […] Percent Body Fat. The percent body fat was estimated from the weight of the epididymal fat pad. It has been shown that, as a proportion of total body weight, the epididymal fat pad weight is highly correlated with percent body fat (Rogers et al, Brit. J. Nutr. 43:83-86 (1980), Eisen et al, Growth 45:100-107 (1981)).

UCP3 = UCP3 expression in IBAT; assay type: in vivo; details: HF-fed B6 mice
Protocol: as §2
Isolation and Analysis of RNA. Total cellular RNA was prepared using the tissues of 6 mice per group by the cesium chloride gradient method as detailed (Chirgwin et al, Biochemistry 18:5294-5399 (1979)). For Northern blot hybridization, RNA was denatured by the glyoxal procedure, fractionated through 1.2% agarose gels, and blotted onto Biotrans (ICN) nylon membranes (Collins et al, J. Biol. Chem. 263:9067-9070 (1988)). […] A rat cDNA probe for cyclophilin was used as an internal hybridization/quantitation standard. Blots were hybridized and washed as previously described (Collins et al, Mol. Endocrinol. 8:518-527 (1994), (Thomas. Proc. Natl. Acad. Sci. USA 77:5201-5205 (1980)). The intensity of hybridization signals was quantified by PhosphorImager (ImageQuant/Storm) and normalized to the values for cyclophilin.

UCP1 mRNA = test: Northern blot, UCP1 mRNA in IBAT and RP; assay type: in vivo, B6 mice; details: compared to the HF control

T1 sequence (P25962 whole entry): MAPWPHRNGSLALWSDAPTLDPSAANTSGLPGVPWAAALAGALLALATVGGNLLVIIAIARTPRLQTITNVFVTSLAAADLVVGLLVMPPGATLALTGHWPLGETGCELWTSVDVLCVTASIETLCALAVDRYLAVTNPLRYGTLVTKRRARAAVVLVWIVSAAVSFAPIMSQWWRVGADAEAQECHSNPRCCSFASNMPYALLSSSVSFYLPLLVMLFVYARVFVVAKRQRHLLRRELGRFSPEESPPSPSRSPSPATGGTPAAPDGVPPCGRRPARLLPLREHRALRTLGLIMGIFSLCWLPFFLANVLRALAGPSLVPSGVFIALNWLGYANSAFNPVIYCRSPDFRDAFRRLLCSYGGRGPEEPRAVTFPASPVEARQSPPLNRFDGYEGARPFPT

SMILES	β3AR mRNA levels in EWAT (β3AR mRNA)	Fasting plasma insulin ([1]; end of / throughout the study, compared to pretreatment)	Leptin ([1]; plasma, at the conclusion of the study, HF diet + drug for 4 weeks)	Fasting plasma glucose ([1]; compared to pretreatment)	NEFA [2]	Adenylyl cyclase activity in response to CL in EWAT plasma membranes (β3AR)	Glucose transport into EWAT [3]	Epididymal Fat Pad Weight [4]	Retroperitoneal Fat Pad Weight [4]	UCP3 expression in IBAT (UCP3)	UCP1 mRNA levels in IBAT (UCP1 mRNA)	Glucose transport into RP ([3]; ANOVA trend p=0.07)
CC1=NS(=O)(=O)c2cc(Cl)ccc2N1 [Dz, diazoxide]	levels comparable to the LF fed controls	remained significantly below pretreatment levels throughout the study	4.2 +/− 0.8^c ng/ml	remained lower than pretreatment levels throughout the study	0.82 +/− 0.08^b mEq/L	restored the efficacy of the β3AR to stimulate adenylyl cyclase	did not reach a statistically significant level	0.691 +/− 0.083^b,c grams	0.123 +/− 0.014^b,c grams	significant increase in UCP3 expression in IBAT	greater increase in UCP1 expression	–
C[C@H](Cc1ccc2c(c1)OC(C(=O)[O-])(C(=O)[O-])O2)NC[C@H](O)c1cccc(Cl)c1.[Na+].[Na+] [CL, disodium (R,R)-5-[2[[2-(3-chlorophenyl)-2-hydroxyethyl]-amino]propyl]-1,3-benzodioxole-2,2-dicarboxylate]	failed to restore β3AR expression or function	–	–	returned to the pretreatment values	0.69 +/− 0.04^b mEq/L	a general decrease in adenylyl cyclase activity	improved glucose transport into EWAT	0.943 +/− 0.129^b grams	0.200 +/− 0.024^b grams	–	greater increase in UCP1 expression	enhanced glucose transport
